From patent US7576222B2, “Alkynyl-containing tryptophan derivative inhibitors of TACE/matrix metalloproteinase” (priority 2004, dated 2009) come the findings set out here.

The target of the first test is T1, catalytic domain of the recombinant TACE protein (Homo sapiens, UniProt P78536).
T1 construct: The catalytic domain of the recombinant TACE protein was expressed and purified; made in house
T1 sequence (P78536 223-474 limits assumed): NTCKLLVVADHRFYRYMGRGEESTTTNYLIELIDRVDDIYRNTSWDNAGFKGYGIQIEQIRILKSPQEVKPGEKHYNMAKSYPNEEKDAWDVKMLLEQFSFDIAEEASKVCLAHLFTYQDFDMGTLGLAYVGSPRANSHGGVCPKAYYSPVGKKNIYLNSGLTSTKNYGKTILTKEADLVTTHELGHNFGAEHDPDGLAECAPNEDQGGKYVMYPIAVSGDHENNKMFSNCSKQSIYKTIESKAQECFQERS
The test can be described thus: TACE FRET assay using TACE cat. The format is biochemical.
Conditions: not given
As for the experimental part: TACE FRET Assay Using TACE Cat
“K” is the IC50. Generally, “n” and “B” are floated, noting that n (Hill slope) should be close to 1 and B (background offset) to 0.
Pro-TNF-α substrate peptide Abz-[…]-Dpa (AnaSpec, San Jose, Calif., WARC-1) was prepared as a 2 mM stock solution in the TACE assay buffer (50 mM Tris-HCl, pH 7.4, 25 mM NaCl, 4% Glycerol, 0.005% Brij 35). The catalytic domain of the recombinant TACE protein was expressed and purified. The TACE protein (1 ug/ml) was pretreated with the inhibitors at various concentrations for 10 min. at room temperature. The reaction was initiated by the addition of the substrate peptide. […] The initial rate (slope) of the reaction was determined using a fluorescence plate reader (Molecular Devices, Spectra Max Gemini XS).
As usually defined, the IC50 is the concentration at which inhibition is half-maximal. Turning to `CC#CCOc1ccc(S(=O)(=O)N[C@@H](Cc2cn(Cc3cccc(OC)c3)c3ccc(OC)cc23)C(=O)O)cc1` [Example 52, N-{[4-(but-2-ynyloxy)phenyl]sulfonyl}-5-methoxy-1-(3-methoxybenzyl)tryptophan], the IC50 was determined as 2.24 µM.

Consider `CC#CCOc1ccc(S(=O)(=O)N[C@@H](Cc2cn(CC3CCC3)c3ccc(OC)cc23)C(=O)O)cc1` [Example 69, N-{[4-(but-2-ynyloxy)phenyl]sulfonyl}-1-(cyclobutylmethyl)-5-methoxytryptophan], for which the IC50 came out at 1.19 µM.

As to `CC#CCOc1ccc(S(=O)(=O)N[C@@H](Cc2c(C)n(Cc3ccc(OC)cc3)c3ccc(Cl)cc23)C(=O)O)cc1` [Example 91, N-{[4-(but-2-ynyloxy)phenyl]sulfonyl}-5-chloro-1-(4-methoxybenzyl)-2-methyltryptophan], the IC50 is 0.19 µM.

Take `CC#CCOc1ccc(S(=O)(=O)N[C@@H](Cc2c(C)n(Cc3ccc(C#N)cc3)c3ccc(OC)cc23)C(=O)O)cc1` [Example 205, N-{[4-(but-2-ynyloxy)phenyl]sulfonyl}-1-(4-cyanobenzyl)-5-methoxy-2-methyltryptophan]: the IC50 was 0.47 µM.

For `CC#CCOc1ccc(S(=O)(=O)N[C@@H](Cc2c[nH]c3cc(F)ccc23)C(=O)O)cc1` [Example 7, N-{[4-(but-2-ynyloxy)phenyl]sulfonyl}-6-fluorotryptophan], the IC50 came out at 2.96 µM.

For the compound `CC#CCOc1ccc(S(=O)(=O)N[C@@H](Cc2cn(Cc3ccc4c(c3)OCO4)c3ccc(OC)cc23)C(=O)O)cc1` [Example 65, 1-(1,3-benzodioxol-5-ylmethyl)-N-{[4-(but-2-ynyloxy)phenyl]sulfonyl}-5-methoxytryptophan], the IC50 turned out to be 1.5 µM.

For `CC#CCOc1ccc(S(=O)(=O)N[C@@H](Cc2c(C)n(Cc3ccccc3C)c3ccc(OC)cc23)C(=O)O)cc1` [Example 186, N-{[4-(but-2-ynyloxy)phenyl]sulfonyl}-5-methoxy-2-methyl-1-(2-methylbenzyl)tryptophan], the concentration for half-maximal inhibition (IC50) turned out to be 0.28 µM.

Staying with this test, now noted: TACE FRET assay, catalytic domain of recombinant TACE; read-out: TACE IC50.
Take `CC#CCOc1ccc(S(=O)(=O)N[C@@H](Cc2cn(Cc3ccc(OC)cc3)c3ccccc23)C(=O)O)cc1` [Example 19, N-{[4-(but-2-ynyloxy)phenyl]sulfonyl}-1-(4-methoxybenzyl)-L-tryptophan]: the concentration for half-maximal inhibition (IC50) amounted to 1.19 µM.

For the compound `CC#CCOc1ccc(S(=O)(=O)N[C@H](Cc2cn(C(=O)OC(C)(C)C)c3ccccc23)C(=O)O)cc1` [Example 220, 1-(tert-butoxycarbonyl)-N-{[4-(but-2-ynyloxy)phenyl]sulfonyl}-D-tryptophan], the IC50 worked out at 3.67 µM.

Consider `CC#CCOc1ccc(S(=O)(=O)N[C@H](Cc2c[nH]c3ccccc23)C(=O)O)cc1` [Example 1, N-{[4-(but-2-ynyloxy)phenyl]sulfonyl}-D-tryptophan], for which the half-maximal inhibitory concentration (IC50) was found to be 2.53 µM.

Staying with this test, now noted: read-out: TACE Inhibition (%).
By inhibition is commonly meant the drop in the measured response relative to a control, in per cent. As to `CC#CCOc1ccc(S(=O)(=O)N[C@@H](Cc2c(C)n(C)c3ccc(OC)cc23)C(=O)O)cc1` [Example 208, N-{[4-(but-2-ynyloxy)phenyl]sulfonyl}-5-methoxy-1,2-dimethyltryptophan], the inhibition at 1 µM turned out to be 61.8%.

For `CC#CCOc1ccc(S(=O)(=O)N[C@@H](Cc2cn(Cc3ccccc3C#N)c3ccc(OC)cc23)C(=O)O)cc1` [Example 64, N-{[4-(but-2-ynyloxy)phenyl]sulfonyl}-1-(2-cyanobenzyl)-5-methoxytryptophan], the inhibition at 1 µM was 40.9%.

Consider `CC#CCOc1ccc(S(=O)(=O)N[C@@H](Cc2c(C)n(Cc3ccc(C#N)cc3)c3ccc(Cl)cc23)C(=O)O)cc1` [Example 98, N-{[4-(but-2-ynyloxy)phenyl]sulfonyl}-5-chloro-1-(4-cyanobenzyl)-2-methyltryptophan], for which the inhibition at 1 µM stood at 61%.

With `CC#CCOc1ccc(S(=O)(=O)N[C@@H](Cc2cn(Cc3cccc(OC)c3)c3ccc(Cl)cc23)C(=O)O)cc1` [Example 75, N-{[4-(but-2-ynyloxy)phenyl]sulfonyl}-5-chloro-1-(3-methoxybenzyl)tryptophan], the inhibition at 1 µM was found to be 25%.

As to `CC#CCOc1ccc(S(=O)(=O)N[C@@H](Cc2c(C)n(Cc3ccccc3OC)c3ccc(Cl)cc23)C(=O)O)cc1` [Example 89, N-{[4-(but-2-ynyloxy)phenyl]sulfonyl}-5-chloro-1-(2-methoxybenzyl)-2-methyltryptophan], the inhibition at 1 µM worked out at 53.6%.

`CC#CCOc1ccc(S(=O)(=O)N[C@@H](Cc2cn(Cc3ccc(OC(F)(F)F)cc3)c3ccc(C(=O)O)cc23)C(=O)O)cc1` [Example 114, N-{[4-(but-2-ynyloxy)phenyl]sulfonyl}-5-carboxy-1-[4-(trifluoromethoxy)benzyl]tryptophan]: the inhibition at 1 µM was 10.3%.

Take `CC#CCOc1ccc(S(=O)(=O)N[C@@H](Cc2c(C)n(Cc3cccc(F)c3)c3ccccc23)C(=O)O)cc1` [Example 153, N-{[4-(but-2-ynyloxy)phenyl]sulfonyl}-1-(3-fluorobenzyl)-2-methyltryptophan]: the inhibition at 1 µM was determined as 55.9%.

As for `CC#CCOc1ccc(S(=O)(=O)N[C@@H](Cc2cn(CC3CCC3)c3ccc(Cl)cc23)C(=O)O)cc1` [Example 86, N-{[4-(but-2-ynyloxy)phenyl]sulfonyl}-5-chloro-1-(cyclobutylmethyl)tryptophan], the inhibition at 1 µM stood at 15.7%.

Turning to `CC#CCOc1ccc(S(=O)(=O)N[C@@H](Cc2cn(Cc3ccccc3OC)c3ccc(OC)cc23)C(=O)O)cc1` [Example 51, N-{[4-(but-2-ynyloxy)phenyl]sulfonyl}-5-methoxy-1-(2-methoxybenzyl)tryptophan], the inhibition at 1 µM is 38.3%.

For the compound `CC#CCOc1ccc(S(=O)(=O)N[C@@H](Cc2cn(Cc3ccc(Cl)cc3)c3ccc(OC)cc23)C(=O)O)cc1` [Example 62, N-{[4-(but-2-ynyloxy)phenyl]sulfonyl}-1-(4-chlorobenzyl)-5-methoxytryptophan], the inhibition at 1 µM amounted to 39.3%.

As to `CC#CCOc1ccc(S(=O)(=O)N[C@@H](Cc2cn(Cc3cccc(C)c3)c3ccc(OC)cc23)C(=O)O)cc1` [Example 50, N-{[4-(but-2-ynyloxy)phenyl]sulfonyl}-5-methoxy-1-(3-methylbenzyl)tryptophan], the inhibition at 1 µM stood at 30.6%.

Take `CC#CCOc1ccc(S(=O)(=O)N[C@@H](Cc2c(C)n(CC3CCCCC3)c3ccc(OC)cc23)C(=O)O)cc1` [Example 213, N-{[4-(but-2-ynyloxy)phenyl]sulfonyl}-1-(cyclohexylmethyl)-5-methoxy-2-methyltryptophan]: the inhibition at 1 µM came out at 60.5%.

With `CC#CCOc1ccc(S(=O)(=O)N[C@@H](Cc2cn(Cc3ccccc3)c3ccc(Cl)cc23)C(=O)O)cc1` [Example 71, 1-benzyl-N-{[4-(but-2-ynyloxy)phenyl]sulfonyl}-5-chlorotryptophan], the inhibition at 1 µM was -1.19%.

On to `CC#CCOc1ccc(S(=O)(=O)N[C@@H](Cc2cn(Cc3ccc(C)cc3)c3ccc(C#N)cc23)C(=O)O)cc1` [Example 136, N-{[4-(but-2-ynyloxy)phenyl]sulfonyl}-5-cyano-1-(4-methylbenzyl)tryptophan], for which the inhibition at 1 µM worked out at 57.8%.

Take `CC#CCOc1ccc(S(=O)(=O)N[C@@H](Cc2cn(Cc3cccnc3)c3ccc(C(=O)O)cc23)C(=O)O)cc1` [Example 125, N-{[4-(but-2-ynyloxy)phenyl]sulfonyl}-5-carboxy-1-(pyridin-3-ylmethyl)tryptophan]: the inhibition at 1 µM was 6.23%.

Take `CC#CCOc1ccc(S(=O)(=O)N[C@@H](Cc2cn(Cc3ccc(F)cc3)c3ccc(C#N)cc23)C(=O)O)cc1` [Example 141, N-{[4-(but-2-ynyloxy)phenyl]sulfonyl}-5-cyano-1-(4-fluorobenzyl)tryptophan]: the inhibition at 1 µM was determined as 29.6%.

Consider `CC#CCOc1ccc(S(=O)(=O)N[C@@H](Cc2cn(Cc3ccccc3OC)c3ccc(Cl)cc23)C(=O)O)cc1` [Example 74, N-{[4-(but-2-ynyloxy)phenyl]sulfonyl}-5-chloro-1-(2-methoxybenzyl)tryptophan], for which the inhibition at 1 µM came out at 15%.

Regarding `CC#CCOc1ccc(S(=O)(=O)N[C@@H](Cc2c(C)n(Cc3ccc(C(=O)O)cc3)c3ccc(OC)cc23)C(=O)O)cc1` [Example 207, N-{[4-(but-2-ynyloxy)phenyl]sulfonyl}-1-(4-carboxybenzyl)-5-methoxy-2-methyltryptophan], the inhibition at 1 µM was 62.1%.

`CC#CCOc1ccc(S(=O)(=O)N[C@@H](Cc2c(C)n(Cc3ccc(C(C)C)cc3)c3ccc(Cl)cc23)C(=O)O)cc1` [Example 97, N-{[4-(but-2-ynyloxy)phenyl]sulfonyl}-5-chloro-1-(4-isopropylbenzyl)-2-methyltryptophan]: the inhibition at 1 µM came out at 21.9%.

For `CC#CCOc1ccc(S(=O)(=O)N[C@@H](Cc2cn(Cc3ccc4c(c3)OCO4)c3ccc(C(=O)O)cc23)C(=O)O)cc1` [Example 124, 1-(1,3-benzodioxol-5-ylmethyl)-N-{[4-(but-2-ynyloxy)phenyl]sulfonyl}-5-carboxytryptophan], the inhibition at 1 µM worked out at 10.2%.

As for `CC#CCOc1ccc(S(=O)(=O)N[C@@H](Cc2c(C)n(Cc3cc(OC)cc(OC)c3)c3ccc(OC)cc23)C(=O)O)cc1` [Example 192, N-{[4-(but-2-ynyloxy)phenyl]sulfonyl}-1-(3,5-dimethoxybenzyl)-5-methoxy-2-methyltryptophan], the inhibition at 1 µM is 80%.

Take `CC#CCOc1ccc(S(=O)(=O)N[C@@H](Cc2c(C)n(Cc3ccc(OC(F)(F)F)cc3)c3ccccc23)C(=O)O)cc1` [Example 151, N-{[4-(but-2-ynyloxy)phenyl]sulfonyl}-2-methyl-1-[4-(trifluoromethoxy)benzyl]tryptophan]: the inhibition at 1 µM is 24.3%.
